Values of other authors, collected in patent US7521440B2, “Targeted oxidative therapeutic formulation” (Torquin, LLC, priority 2001, dated 2009).

Key:
[1] = tested on: peroxide-sensitive E. coli; conditions: infused into the blood of infected rabbits
[2] = tested on: E. coli; conditions: increasing peroxide concentration ex-vivo in rabbit or human blood

Q: Which bactericidal effect [1] does the source give for `OO` [hydrogen peroxide, Hydrogen peroxide] here?
A: no bactericidal effect

Q: What about the direct bactericidal activity [2] of the same compound?
A: no evidence of direct bactericidal activity
